Test results: patent publication US20190144375A1, “NOVEL CARBOCYCLIC COMPOUNDS AS ROR GAMMA MODULATORS” (Glenmark Pharmaceuticals S.A., priority 2015, published 2019)

Biological target: T1, GST-tagged ROR gamma ligand binding domain (LBD) (Homo sapiens, UniProt P51449)
T1 construct: purchased Invitrogen
T1 sequence (P51449 269-508 limits assumed): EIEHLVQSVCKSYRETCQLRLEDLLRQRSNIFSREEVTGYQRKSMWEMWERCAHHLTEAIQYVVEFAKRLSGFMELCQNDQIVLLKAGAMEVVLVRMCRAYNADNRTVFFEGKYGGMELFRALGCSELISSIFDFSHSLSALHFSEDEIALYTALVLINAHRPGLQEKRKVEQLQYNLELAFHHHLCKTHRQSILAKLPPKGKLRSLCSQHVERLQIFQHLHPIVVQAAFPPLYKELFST
Test: TR-FRET assay for ROR gamma (LanthaScreen, Fluorescein-D22 co-activator peptide recruitment)
Format: biochemical
Conditions: for inhibition at 1 µM: 1 μM compound; for inhibition at 1 µM / inhibition at 10 µM: TR-FRET ratio 520/495; for inhibition at 10 µM: 10 μM compound; for IC50: dose response curve, class symbols
Description: The compounds described herein were screened for ROR gamma modulator activity using the TR-FRET assay (LanthaScreen™ available from Invitrogen of Carlsbad, Calif.) as described in JBC 2011, 286, 26: 22707-10; and Drug Metabolism and Disposition 2009, 37, 10: 2069-78.
The assay is based on the principle that binding of the agonist to the ROR gamma causes a conformational change around helix 12 in the ligand binding domain, resulting in higher affinity for the co-activator peptide. ROR gamma being constitutively active, the Fluorescein-D22 co-activator peptide used in the assay is recruited in the absence of a ligand. Binding of the co-activator peptide, causes an increase in the TR-FRET signal while binding of an antagonist decreases the recruitment of the co-activator peptide, causing a decrease in the TR-FRET signal compared to control with no compound. The assay was performed using a two-step procedure, pre-incubation step with the compound followed by the detection step on addition of the anti-GST tagged terbium (Tb) and fluorescein tagged fluorophores as the acceptor.
Test compounds or reference compounds such as T0901317 (Calbiochem) were dissolved in dimethylsulfoxide (DMSO) to prepare 10.0 mM stock solutions and diluted to the desired concentration. The final concentration of DMSO in the reaction was 4% (v/v). The assay mixture was prepared by mixing 10 nM of the GST-tagged ROR gamma ligand binding domain (LBD) in the assay buffer containing 25 mM HEPES, 100 mM NaCl, 5 mM DTT and 0.01% BSA with or without the desired concentration of the compound. The reaction was incubated at 22° C. for 1 hour. The pre-incubation step was terminated by addition of the detection mixture containing 300 nM Fluorescein-D22 co-activator peptide and 10 nM lantha screen Tb-anti GST antibody into the reaction mixture. After shaking for 5 minutes the reaction was further incubated for 1 hour at room temperature and read […] on an Infinite F500 reader as per the kit instructions (Invitrogen). The inhibition of test compound was calculated based on the TR-FRET ratio of 520/495. The activity was calculated as a percent of control reaction. IC50 values were calculated from dose response curve by nonlinear regression analysis using GraphPad Prism software.
Percentage inhibition at concentrations of 1.0 μM and 10.0 μM are given in the table along with IC50 (nM) details for selected examples.

SMILES	inhibition at 1 µM	inhibition at 10 µM	IC50
Cc1cc(C)cc(N(C)C(=O)c2ccc(NC(=O)Cc3ccc(C(F)(F)C(C)O)cc3)cc2)c1 (stereo not drawn) [Example 8]	94.8%	96.5%	< 50 nM
Cc1ccc(C2CC2)cc1N(C)C(=O)c1ccc(NC(=O)Cc2ccc(C(F)(F)C(C)O)cc2)cc1 (stereo not drawn) [Example 39]	84.1%	92%	< 50 nM
Cc1cc(N(C)C(=O)c2ccc(NC(=O)Cc3ccc(C(F)(F)C(C)O)cc3)cc2)c(F)cc1Cl (stereo not drawn) [Example 37]	93.9%	96.3%	< 50 nM
CC(O)C(F)(F)c1ccc(CC(=O)Nc2ccc(C(=O)N(C)c3cc(C4CC4)ccc3Cl)cc2)cc1 (stereo not drawn) [Example 40]	90.8%	94.3%	< 50 nM
Cc1ccc(N(C)C(=O)c2ccc(NC(=O)Cc3ccc(C(F)(F)C(C)O)cc3)cc2)c(Cl)c1 (stereo not drawn) [Example 23]	88.8%	93.2%	< 50 nM
CC(O)C(F)(F)c1ccc(CC(=O)Nc2ccc(C(=O)N(C)c3cccc(Cl)c3F)cc2)cc1 (stereo not drawn) [Example 26]	86.4%	93.2%	< 50 nM
COCC(F)(F)c1ccc(CC(=O)Nc2ccc(C(=O)N(C)c3cc(C)cc(C)c3)cc2)cc1 [Example 10]	93.2%	95.3%	< 50 nM
CC(O)C(F)(F)c1ccc(CC(=O)Nc2ccc(C(=O)N(C)[C@@H](c3ccc(Cl)cc3)C3CC3)cc2)cc1 (stereo partly drawn) [Example 19]	82.6%	92.8%	50 to 100 nM
CCC(F)(F)c1ccc(CC(=O)Nc2ccc(C(=O)N(C)c3cc(Cl)ccc3Cl)cc2)cc1 [Example 4]	88.5%	91.1%	< 50 nM
Cc1cc(Cl)ccc1N(C)C(=O)c1ccc(NC(=O)Cc2ccc(C(F)(F)C(C)O)cc2)cc1 (stereo not drawn) [Example 24]	82.6%	88.7%	< 50 nM
Cc1cc(C)c(N(C)C(=O)c2ccc(NC(=O)Cc3ccc(C(F)(F)C(C)O)cc3)cc2)c(C)c1 (stereo not drawn) [Example 32]	84.9%	95%	50 to 100 nM
Cc1cc(C)cc(N(C)C(=O)c2ccc(NC(=O)Cc3ccc(C(F)(F)CO)cc3)cc2)c1 [Example 7]	87.5%	95.1%	< 50 nM
CCC(F)(F)c1ccc(CC(=O)Nc2ccc(C(=O)N(C)c3ccccc3Cl)cc2)cc1 [Example 6]	90.9%	91.2%	< 50 nM
CCC(F)(F)c1ccc(CC(=O)Nc2ccc(C(=O)N(C)c3cc(C)cc(C)c3)cc2)cc1 [Example 11]	90.1%	92.9%	< 50 nM
CC(O)C(F)(F)c1ccc(CC(=O)Nc2ccc(C(=O)N(C)c3cc(Cl)cc(Cl)c3)cc2)cc1 (stereo not drawn) [Example 21, N-(3,5-dichlorophenyl)-4-(2-(4-(1,1-difluoro-2-hydroxypropyl)phenyl)acetamido)-N-methylbenzamide]	82.2%	87.9%	< 50 nM
Cc1ccc(N(C)C(=O)c2ccc(NC(=O)Cc3ccc(C(F)(F)[C@@H](C)O)cc3)cc2)c(Cl)c1 [Example 29, (R)—N-(2-Chloro-4-methylphenyl)-4-(2-(4-(1,1-difluoro-2-hydroxypropyl)phenyl)acetamido)-N-methylbenzamide]	80.7%	87.1%	< 50 nM
CCC(F)(F)c1ccc(CC(=O)Nc2ccc(C(=O)N(CC(F)(F)F)c3cccc(Cl)c3)cc2)cc1 [Example 14]	84%	87.6%	< 50 nM
CN(C(=O)c1ccc(NC(=O)Cc2ccc(C(F)(F)CO)cc2)cc1)c1ccc(Cl)cc1 [Example 3, N-(4-chlorophenyl)-4-(2-(4-(1,1-difluoro-2-hydroxyethyl)phenyl)acetamido)-N-methylbenzamide]	75%	85.8%	> 100 nM
Cc1cc(C)cc(N(C)C(=O)c2ccc(NC(=O)Cc3ccc(C(F)(F)[C@@H](C)O)cc3)cc2)c1 [Example 36]	89.7%	94.5%	< 50 nM
Cc1ccc(F)c(N(C)C(=O)c2ccc(NC(=O)Cc3ccc(C(F)(F)C(C)O)cc3)cc2)c1 (stereo not drawn) [Example 28]	90.5%	93.9%	< 50 nM
CCC(F)(F)c1ccc(CC(=O)Nc2ccc(C(=O)N(C)[C@H](C)c3ccc(Cl)cc3)cc2)cc1 [Example 17]	87.1%	90.8%	< 50 nM
CC(O)C(F)(F)c1ccc(CC(=O)Nc2ccc(C(=O)N(C)c3ccc(C4CC4)cc3Cl)cc2)cc1 (stereo not drawn) [Example 38]	92.6%	94.8%	< 50 nM
